# Experimental data from ChEMBL document CHEMBL1201862, “PubChem BioAssay data set” (2004).
#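 Following 48 hours of exposure in 96-well plates, responses at five concentrations were used to interpolate endpoints linearly. The concentration for 50% growth inhibition is given as GI50.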 Activity calls are given as the source filed them. No stated cut-off is given here; in the data, active = GI50 up to about 1.1 µM and inactive = higher.
# Experiments:
# Test in all cases: NCI anticancer screen, dose series, 48 h
# K562 = tested on: K562
# COLO 205 = tested on: COLO 205
# TK-10 = tested on: TK-10
# OVCAR-5 = tested on: OVCAR-5
# NCI-H522 = tested on: NCI-H522
# MDA-N = tested on: MDA-N
# SF-268 = tested on: SF-268
# SN12C = tested on: SN12C
# UO-31 = tested on: UO-31
# HCC 2998 = tested on: HCC 2998
# HCT-15 = tested on: HCT-15
# SK-OV-3 = tested on: SK-OV-3
# EKVX = tested on: EKVX
# OVCAR-3 = tested on: OVCAR-3
# SK-MEL-5 = tested on: SK-MEL-5
# CAKI-1 = tested on: CAKI-1
# HCT-116 = tested on: HCT-116
# PC-3 = tested on: PC-3
# U-251 = tested on: U-251
# A549 = tested on: A549
# DU-145 = tested on: DU-145
# Malme-3M = tested on: Malme-3M
# ACHN = tested on: ACHN
# A498 = tested on: A498
# OVCAR-8 = tested on: OVCAR-8
# 786-0 = tested on: 786-0
# IGROV-1 = tested on: IGROV-1
# Hs-578T = tested on: Hs-578T
# SF-295 = tested on: SF-295
# MDA-MB-231 = tested on: MDA-MB-231
# HT-29 = tested on: HT-29
# T47D = tested on: T47D
# NCI-H23 = tested on: NCI-H23
# SF-539 = tested on: SF-539
# NCI-H226 = tested on: NCI-H226
# NCI-H460 = tested on: NCI-H460
# SK-MEL-2 = tested on: SK-MEL-2
# BT-549 = tested on: BT-549
# LOX IMVI = tested on: LOX IMVI
# SW-620 = tested on: SW-620
# SNB-75 = tested on: SNB-75
# HL-60 = tested on: HL-60
# SNB-19 = tested on: SNB-19
# MDA-MB-435 = tested on: MDA-MB-435
# MOLT-4 = tested on: MOLT-4
# UACC-62 = tested on: UACC-62
# SK-MEL-28 = tested on: SK-MEL-28
# M14 = tested on: M14
# RPMI-8226 = tested on: RPMI-8226
# MCF7 = tested on: MCF7
# CCRF-CEM = tested on: CCRF-CEM
# KM12 = tested on: KM12
# UACC-257 = tested on: UACC-257
# NCI/ADR-RES = tested on: NCI/ADR-RES
# HOP-62 = tested on: HOP-62
compound,measurement,setting,value
CCN(CC)CCCNc1nncc2cc3c([nH]c4ccccc43)c(C)c12,GI50,K562,7.03 µM (inactive)
same,GI50,COLO 205,8.75 µM (inactive)
same,GI50,TK-10,20.9 µM (inactive)
same,GI50,OVCAR-5,14.4 µM (inactive)
same,GI50,NCI-H522,4.15 µM (inactive)
same,GI50,MDA-N,16.4 µM (inactive)
same,GI50,SF-268,8.18 µM (inactive)
same,GI50,SN12C,6.24 µM (inactive)
same,GI50,UO-31,12.1 µM (inactive)
same,GI50,HCC 2998,11 µM (inactive)
same,GI50,HCT-15,16 µM
same,GI50,SK-OV-3,15.2 µM (inactive)
same,GI50,EKVX,8.38 µM (inactive)
same,GI50,OVCAR-3,10.4 µM (inactive)
same,GI50,SK-MEL-5,19.3 µM (inactive)
same,GI50,CAKI-1,33.4 µM (inactive)
same,GI50,HCT-116,6.01 µM (inactive)
same,GI50,PC-3,8.13 µM (inactive)
same,GI50,U-251,6.04 µM (inactive)
same,GI50,A549,10.8 µM (inactive)
same,GI50,DU-145,12 µM (inactive)
same,GI50,Malme-3M,17.6 µM (inactive)
same,GI50,ACHN,10.2 µM (inactive)
same,GI50,A498,15.4 µM (inactive)
same,GI50,OVCAR-8,7.29 µM (inactive)
same,GI50,786-0,5.53 µM (inactive)
same,GI50,IGROV-1,3.12 µM (inactive)
same,GI50,Hs-578T,14.1 µM (inactive)
same,GI50,SF-295,16 µM (inactive)
same,GI50,MDA-MB-231,4.65 µM (inactive)
same,GI50,HT-29,4.03 µM (inactive)
same,GI50,T47D,13.3 µM (inactive)
same,GI50,NCI-H23,14.1 µM (inactive)
same,GI50,SF-539,16 µM (inactive)
same,GI50,NCI-H226,11.5 µM (inactive)
same,GI50,NCI-H460,5.6 µM (inactive)
same,GI50,SK-MEL-2,36.4 µM (inactive)
same,GI50,BT-549,17.9 µM (inactive)
same,GI50,LOX IMVI,5.18 µM (inactive)
same,GI50,SW-620,4.4 µM (inactive)
same,GI50,SNB-75,13.2 µM (inactive)
same,GI50,HL-60,5.02 µM (inactive)
same,GI50,SNB-19,12.4 µM (inactive)
same,GI50,MDA-MB-435,18.2 µM (inactive)
same,GI50,MOLT-4,1.49 µM (inactive)
same,GI50,UACC-62,15.7 µM (inactive)
same,GI50,SK-MEL-28,17.7 µM (inactive)
same,GI50,M14,20.5 µM (inactive)
same,GI50,RPMI-8226,12 µM (inactive)
same,GI50,MCF7,13.6 µM (inactive)
same,GI50,CCRF-CEM,4.1 µM (inactive)
same,GI50,KM12,5.18 µM (inactive)
same,GI50,UACC-257,15.6 µM (inactive)
same,GI50,NCI/ADR-RES,48.9 µM (inactive)
same,GI50,HOP-62,12.9 µM (inactive)
